The subject of data set [1] is MDMΦs. Kind of data set: Cytotoxicity, MTS cell proliferation assay. The data set is classed as cell-based, human. As to the method:
Cytotoxicity of compounds was assessed by a cell proliferation assay for metabolic activity using a CellTiter 96 AQueous One Solution Cell Proliferation Assay (Promega) as per the manufacturer’s instructions. Briefly, 20 μl of a solution containing tetrazolium compound [3-(4,5-[…])-5-(3-carboxymethoxyphenyl)-2-(4-sulfophenyl)-2H-tetrazolium; MTS] and electron coupling reagent (phenazine ethosulfate) was added to cells covered or suspended in 100 μl of culture medium in a 96-well plate. Samples were incubated for approximately 4 hours (37°C, 5% CO2), and the absorbance at 490 nm (A490) was measured on a SpectraMax M5 microplate reader (Molecular Devices).
(In general: Formazan colour is commonly taken as a measure of viable cells.)

Data set [2] has as its target T1, Mouse ER α-glucosidase II (Mus musculus, UniProt Q8BHN3).
T1 sequence (Q8BHN3 33-944): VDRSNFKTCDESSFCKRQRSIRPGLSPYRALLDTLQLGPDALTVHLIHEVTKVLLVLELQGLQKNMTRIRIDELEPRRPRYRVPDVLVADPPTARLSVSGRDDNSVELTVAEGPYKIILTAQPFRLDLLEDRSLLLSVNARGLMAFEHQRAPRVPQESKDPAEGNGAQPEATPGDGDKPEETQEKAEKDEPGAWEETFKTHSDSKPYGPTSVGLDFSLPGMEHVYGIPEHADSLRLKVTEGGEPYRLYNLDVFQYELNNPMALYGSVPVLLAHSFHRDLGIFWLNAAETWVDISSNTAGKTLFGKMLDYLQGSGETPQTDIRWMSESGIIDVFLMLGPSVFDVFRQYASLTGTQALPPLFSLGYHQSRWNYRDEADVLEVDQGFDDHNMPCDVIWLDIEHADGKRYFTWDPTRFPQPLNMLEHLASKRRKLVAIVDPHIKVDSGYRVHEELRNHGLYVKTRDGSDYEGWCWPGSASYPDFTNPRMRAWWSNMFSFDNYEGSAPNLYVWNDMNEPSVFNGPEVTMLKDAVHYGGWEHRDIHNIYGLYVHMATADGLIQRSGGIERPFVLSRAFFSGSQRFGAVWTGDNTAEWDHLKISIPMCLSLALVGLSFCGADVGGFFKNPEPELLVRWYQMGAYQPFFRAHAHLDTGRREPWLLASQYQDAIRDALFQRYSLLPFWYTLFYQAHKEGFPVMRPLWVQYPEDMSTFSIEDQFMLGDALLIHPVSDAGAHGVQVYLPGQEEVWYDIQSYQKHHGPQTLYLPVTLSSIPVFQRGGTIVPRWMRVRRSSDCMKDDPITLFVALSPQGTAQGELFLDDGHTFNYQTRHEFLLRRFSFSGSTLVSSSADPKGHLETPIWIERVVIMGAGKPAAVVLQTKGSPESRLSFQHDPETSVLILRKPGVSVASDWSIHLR
T1 sequence (O08795 15-521 partner): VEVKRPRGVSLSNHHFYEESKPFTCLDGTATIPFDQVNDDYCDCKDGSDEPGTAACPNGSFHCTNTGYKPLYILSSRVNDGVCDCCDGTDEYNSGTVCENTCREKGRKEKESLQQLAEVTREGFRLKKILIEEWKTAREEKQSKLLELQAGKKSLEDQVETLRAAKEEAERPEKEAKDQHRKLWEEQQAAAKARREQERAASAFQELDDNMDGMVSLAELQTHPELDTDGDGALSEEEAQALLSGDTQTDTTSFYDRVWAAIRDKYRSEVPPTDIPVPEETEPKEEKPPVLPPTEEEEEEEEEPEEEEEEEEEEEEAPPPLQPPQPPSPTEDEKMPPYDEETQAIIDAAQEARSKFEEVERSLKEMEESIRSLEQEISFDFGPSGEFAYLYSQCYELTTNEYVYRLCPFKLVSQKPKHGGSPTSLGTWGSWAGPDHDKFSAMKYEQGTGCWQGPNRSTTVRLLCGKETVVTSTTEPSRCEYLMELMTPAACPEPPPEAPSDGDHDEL
The data set is described as follows: In vitro enzyme inhibition, 4MUG hydrolysis. In kind it is biochemical. The note with it: concentration required to inhibit the enzyme to 50% activity. As to the method: Recombinant Mus musculus ER alpha-glucosidase II inhibition was measured by incubating 20 nM enzyme with various concentrations of inhibitors in 100 mM potassium phosphate pH 7.2 at 37 °C for 5 minutes. Activity was measured by addition of 0.25 mM 4-methylumbelliferyl α-D-glucopyranoside (4MUG) (Sigma Aldrich) in black, non-binding surface-treated microplates (Corning). Fluorescence upon hydrolysis of the 4MUG was measured at λex of 355 nm and λem of 460 nm in a M5 multi-mode plate reader (Molecular Devices) at 37 °C, measuring fluorescence every minute for a total of 30 minutes. The initial velocity was fit in the linear range of measurements, and activity was normalized to the uninhibited control in order to plot activity against the inhibitor concentration. A sigmoidal, four-parameter function with a variable slope was used to determine the EC50 values in Prism (GraphPad).

Data set [3] addresses T2, Rat intestinal isomaltase (Rattus norvegicus, UniProt P23739).
T2 construct: from tissue; host or cells: rat intestine
Kind of data set: In vitro enzyme inhibition, glucose release from disaccharide. The data set is classed as biochemical. The note with it: concentration required to inhibit the enzyme to 50% activity; read-out: IC50.

Data set [4] has as its target Human lysosome α-glucosidase (Homo sapiens, UniProt P10253). The data set is described as follows: In vitro enzyme inhibition. The conditions noted are these: concentration required to inhibit the enzyme to 50% activity; read-out: IC50. In kind it is biochemical.

T2 sequence (P23739 whole entry): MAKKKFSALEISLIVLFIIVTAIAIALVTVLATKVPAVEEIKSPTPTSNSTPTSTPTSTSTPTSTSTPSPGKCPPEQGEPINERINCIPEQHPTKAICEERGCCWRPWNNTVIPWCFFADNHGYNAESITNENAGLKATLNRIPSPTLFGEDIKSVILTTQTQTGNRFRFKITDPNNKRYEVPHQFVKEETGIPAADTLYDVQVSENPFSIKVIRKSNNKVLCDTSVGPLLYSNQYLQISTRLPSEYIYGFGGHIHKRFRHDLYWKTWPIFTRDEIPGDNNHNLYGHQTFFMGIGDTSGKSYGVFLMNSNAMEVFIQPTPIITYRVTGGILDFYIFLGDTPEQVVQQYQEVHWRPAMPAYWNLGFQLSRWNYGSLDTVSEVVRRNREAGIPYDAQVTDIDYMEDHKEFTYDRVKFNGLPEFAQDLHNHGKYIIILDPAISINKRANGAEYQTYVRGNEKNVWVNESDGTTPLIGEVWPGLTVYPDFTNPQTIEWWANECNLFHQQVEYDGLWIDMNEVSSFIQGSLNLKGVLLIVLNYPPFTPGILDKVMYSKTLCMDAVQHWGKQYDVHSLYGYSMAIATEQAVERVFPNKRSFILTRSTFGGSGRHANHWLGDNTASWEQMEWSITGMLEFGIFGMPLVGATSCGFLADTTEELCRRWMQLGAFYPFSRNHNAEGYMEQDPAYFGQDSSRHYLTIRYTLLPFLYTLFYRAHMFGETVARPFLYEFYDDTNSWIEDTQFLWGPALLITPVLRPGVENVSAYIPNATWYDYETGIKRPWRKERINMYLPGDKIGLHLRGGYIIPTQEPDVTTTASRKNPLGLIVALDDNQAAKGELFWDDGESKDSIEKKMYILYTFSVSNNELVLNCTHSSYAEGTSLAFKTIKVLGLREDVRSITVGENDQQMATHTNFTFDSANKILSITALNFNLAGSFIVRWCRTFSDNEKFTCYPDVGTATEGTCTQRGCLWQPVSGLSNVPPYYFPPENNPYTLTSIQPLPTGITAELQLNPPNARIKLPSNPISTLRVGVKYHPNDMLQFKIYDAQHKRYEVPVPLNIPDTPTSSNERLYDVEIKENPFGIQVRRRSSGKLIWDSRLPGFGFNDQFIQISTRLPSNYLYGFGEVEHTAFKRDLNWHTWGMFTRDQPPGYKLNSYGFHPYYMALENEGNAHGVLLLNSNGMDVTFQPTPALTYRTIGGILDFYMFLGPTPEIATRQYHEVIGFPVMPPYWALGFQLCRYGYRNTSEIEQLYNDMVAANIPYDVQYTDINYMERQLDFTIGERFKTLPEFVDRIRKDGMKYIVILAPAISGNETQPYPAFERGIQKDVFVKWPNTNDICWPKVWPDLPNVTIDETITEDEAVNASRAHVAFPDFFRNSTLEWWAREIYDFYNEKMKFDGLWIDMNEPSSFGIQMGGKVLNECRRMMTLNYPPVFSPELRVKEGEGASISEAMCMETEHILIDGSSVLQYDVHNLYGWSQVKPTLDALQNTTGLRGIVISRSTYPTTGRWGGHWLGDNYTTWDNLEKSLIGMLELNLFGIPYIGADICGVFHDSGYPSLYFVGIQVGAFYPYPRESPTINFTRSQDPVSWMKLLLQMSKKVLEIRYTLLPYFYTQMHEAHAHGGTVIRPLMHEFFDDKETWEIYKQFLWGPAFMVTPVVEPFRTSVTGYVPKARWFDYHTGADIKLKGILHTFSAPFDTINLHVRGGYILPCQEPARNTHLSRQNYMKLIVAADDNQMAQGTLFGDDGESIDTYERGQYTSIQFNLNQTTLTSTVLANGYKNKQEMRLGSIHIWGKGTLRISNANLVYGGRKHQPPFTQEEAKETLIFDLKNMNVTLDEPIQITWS

As to `CCCCN1C[C@H](O)[C@@H](O)[C@@H](O)[C@H]1CO` [NB-DGJ], the “MNTD (maximum non-toxic dose tested)” value in data set [1] worked out at 100 µM. In data set [1], the “concentration up to which cytotoxicity was not detected” value was greater than 100 µM. In addition, the IC50 in data set [2], in data set [3] and in data set [4] was greater than 1000 µM throughout.
Turning to `CCCC(=O)O[C@H]1CN2CC[C@H](O)[C@@H]2[C@@H](O)[C@@H]1O` [Celgosivir, 6-O-butanoyl-castanospermine], the “MNTD (maximum non-toxic dose tested)” value in data set [1] is 100 µM. Moreover, the IC50 (in general, the concentration at which inhibition is half-maximal) in data set [2] is 158 µM; in data set [3] it was 29.3 µM; in data set [4] it was 93.2 µM.
In the case of `CCCCN1C[C@H](O)[C@@H](O)[C@H](O)[C@H]1CO` [NB-DNJ, N-butyl-DNJ], in data set [1], the “MNTD (maximum non-toxic dose tested)” value was 100 µM. For the same compound, the IC50 in data set [2] was 5.2 µM; in data set [4], 0.27 µM.
For `CCCCCCCCCN1C[C@H](O)[C@@H](O)[C@@H](O)[C@H]1CO` [NN-DGJ], the “MNTD (maximum non-toxic dose tested)” value in data set [1] amounted to 31.6 µM. Besides, the IC50 in data set [2], in data set [3] and in data set [4] was greater than 1000 µM throughout.

(Values after paper PMC4790851, “Iminosugars Inhibit Dengue Virus Production via Inhibition of ER Alpha-Glucosidases—Not Glycolipid Processing Enzymes” (PLoS Neglected Tropical Diseases, 2016).)
